Measured values taken from patent US4521537A, “Spiro[2H-1,4-benzodioxepin-3(5H)4'-piperidine and -3'-pyrrolidine] compounds and their use as antihypertensive agents” (Hoechst-Roussel Pharmaceuticals Incorporated, priority 1984, dated 1985).
Structures can show the parent of a compound that is named as a salt.

Tested on: spontaneous hypertensive rat
Experiment: antihypertensive activity, spontaneous hypertensive rat (SHR) test, indirect tail cuff method
Assay type: in vivo
Procedure: Compounds of this invention are useful as antihypertensive agents due to their ability to depress blood pressure in mammals. Antihypertensive activity is measured in the spontaneous hypertensive rat by the indirect tail cuff method described by A. Schwartz, Ed., Methods in Pharmacology, Vol. page 135, Appleton Century Crafts, New York (1971). […] The drop in blood pressure is measured on the third day following administration. The antihypertensive activity is expressed as mm Hg decrease in mean arterial blood pressure.

[1] = Table I, 50 mg/kg PO, three days
[2] = Table I, 3 mg/kg PO, three days
[3] = Table I, 10 mg/kg PO, three days

SMILES	SHR mm Hg (decrease in mean arterial blood pressure) [1] [mm Hg]	other results
CC1Oc2ccccc2COC12CCN(CCCC(c1ccc(F)cc1)c1ccc(F)cc1)CC2 (centres unmarked) [Example 8, 1'-[4,4-Bis-(4-fluorophenyl)butyl]-2-methylspiro[2H-1,4-benzodioxepin-3(5H)4'-piperidine]oxalate]	-102	
CC1Oc2ccccc2COC12CCN(CCCC1(c3ccc(F)cc3)OCCO1)CC2 (centres unmarked) [Example 9, 2-Methyl-1'-[3-[2-(4-fluorophenyl)-1,3-dioxolan-2yl]propyl]spiro[2H-1,4-benzodioxepin-3(5H)4'-piperidine]maleate]	-34	
CC1Oc2ccccc2COC12CCN(CCC=C(c1ccc(F)cc1)c1ccc(F)cc1)CC2 (centres unmarked) [Example 10, 1'-[4,4-Bis(4-fluorophenyl)-3-butenyl]-2-methylspiro[2H-1,4-benzodioxepin-3(5H)4'-piperidine]maleate]	-18	
CC1Oc2ccccc2COC12CCN(CCCC(c1ccccc1)c1ccccc1)CC2 (centres unmarked) [Example 11, 1'-(4,4-Diphenylbutyl)-2-methylspiro[2H-1,4-benzodioxepin-3(5H)4'-piperidine]oxalate]	-17	
CC1Oc2ccccc2COC12CCN(CCC=C(c1ccccc1)c1ccccc1)CC2 (centres unmarked) [Example 12, 1'-[4,4-Diphenyl-3-butenyl]-2-methylspiro[2H-1,4-benzodioxepin-3(5H)4'-piperidine]maleate]	-20	
CC1Oc2ccccc2COC12CCN(CCCCc1ccc(F)cc1)CC2 (centres unmarked) [Example 14, 1'-[4-(4-Fluorophenyl)butyl]-2-methylspiro[2H-1,4-benzodioxepin-3(5H)4'-piperidine]hydrochloride]	-34	
CC1Oc2ccccc2COC12CCN(CCCC(c1ccc(Cl)cc1)c1ccc(Cl)cc1)CC2 (centres unmarked) [Example 15, 1'-[4,4-Bis(4-chlorophenyl)butyl]-2-methylspiro[2H-1,4-benzodioxepin-3(5H)4'-piperidine]oxalate]	-27	
CC1Oc2ccc(Cl)cc2COC12CCN(CCC=C(c1ccccc1)c1ccccc1)CC2 (centres unmarked) [Example 16, 1'-[4,4-Diphenyl-3-butenyl]-7-chloro-2-methylspiro[2H-1,4-benzodioxepin-3(5H)4'-piperidine]oxalate]	-47	
CC1Oc2ccc(Cl)cc2COC12CCN(CCCC(c1ccccc1)c1ccccc1)CC2 (centres unmarked) [Example 17, 1'-[4,4-Diphenylbutyl]-7-chloro-2-methylspiro[2H-1,4-benzodioxepin-3(5H)4'-piperidine]oxalate]	-84	SHR mm Hg (decrease in mean arterial blood pressure) [2]: -23 mm Hg
CC1Oc2ccc(Cl)cc2COC12CCN(CCCC(c1ccc(F)cc1)c1ccc(F)cc1)CC2 (centres unmarked) [Example 18, 1'-[4,4-Bis(4-fluorophenyl)butyl]-7-chloro-2-methylspiro[2H-1,4-benzodioxepin-3(5H)4'-piperidine]oxalate]		SHR mm Hg (decrease in mean arterial blood pressure) (Table I, 0.3 mg/kg PO, three days): -41 mm Hg
CC1Oc2ccc(Cl)cc2COC12CCN(CCC=C(c1ccc(F)cc1)c1ccc(F)cc1)CC2 (centres unmarked) [Example 19, 1'-[4,4-Bis(4-fluorophenyl)-3-butenyl]-7-chloro-2-methylspiro[2H-1,4-benzodioxepin-3(5H)4'-piperidine]oxalate]		SHR mm Hg (decrease in mean arterial blood pressure) [3]: -43 mm Hg
CC1Oc2ccc(Cl)cc2COC12CCN(CCC(c1ccccc1)c1ccccc1)CC2 (centres unmarked) [Example 20, 7-Chloro-2-methyl-1'-(3,3-diphenylpropyl)spiro[2H-1,4-benzodioxepin-3(5H)4'-piperidine]hydrochloride]	-15	
CC1Oc2ccc(Br)cc2COC12CCN(CCCC(c1ccc(F)cc1)c1ccc(F)cc1)CC2 (centres unmarked) [Example 21, 7-Bromo-1'-[4,4-bis(4-fluorophenyl)butyl]-2-methylspiro[2H-1,4-benzodioxepin-3(5H)4'-piperidine]oxalate]		SHR mm Hg (decrease in mean arterial blood pressure) [2]: -63 mm Hg; SHR mm Hg (decrease in mean arterial blood pressure) (Table I, 5 mg/kg PO, three days): -74 mm Hg
CC1Oc2ccccc2COC12CCN(CCCC(O)c1ccc(F)cc1)CC2 (centres unmarked) [Example 23, 1'-[4-Hydroxy-4-(4-fluorophenyl)butyl]-2-methylspiro[2H-1,4-benzodioxepin-3(5H)4'-piperidine]]		SHR mm Hg (decrease in mean arterial blood pressure) [3]: -31 mm Hg
CC1Oc2ccccc2COC12CCN(CCCC(Oc1ccc(F)cc1)c1ccc(F)cc1)CC2 (centres unmarked) [Example 24, 1'-[4-(4-Fluorophenoxy)-4-(4-fluorophenyl)butyl]-2-methylspiro[2H-1,4-benzodioxepin-3(5H)4'-piperidine]oxalate]	-24	
CC1Oc2ccccc2COC12CCNCC2 (centres unmarked) [Example 36, 2-Methylspiro[2H-1,4-benzodioxepin-3(5H)4'-piperidine]oxalate]	-42	
CC1Oc2ccc(F)cc2COC12CCN(CCCC(c1ccccc1)c1ccccc1)CC2 (centres unmarked) [Example 41, 1'-(4,4-Diphenylbutyl)-7-fluoro-2-methylspiro[2H-1,4-benzodioxepin-3(5H)4'-piperidine]hydrochloride]	-34	
CC1Oc2ccc(F)cc2COC12CCN(CCCC(c1ccc(F)cc1)c1ccc(F)cc1)CC2 (centres unmarked) [Example 42, 1'-[4,4-Bis(4-fluorophenyl)butyl]-7-fluoro-2-methylspiro[2H-1,4-benzodioxepin-3(5H)4'-piperidine]hydrochloride]	-126	
CC1Oc2ccc([N+](=O)[O-])cc2COC12CCN(CCCC(c1ccc(F)cc1)c1ccc(F)cc1)CC2 (centres unmarked) [Example 83, 1'-[4,4-Bis(4-fluorophenyl)butyl]-2-methyl-7-nitrospiro[2H-1,4-benzodioxepin-3(5H)4'-piperidine]hydrochloride]		SHR mm Hg (decrease in mean arterial blood pressure) (Table III, 3 mg/kg PO): -65 mm Hg
CC1Oc2ccc(Cl)cc2COC12CCN(CCCC(C1CCCCC1)C1CCCCC1)CC2 (centres unmarked) [Example 87, 1'-(4,4-Dicyclohexylbutyl)-7-chloro-2-methylspiro[2H-1,4-benzodioxepin-3(5H)4'-piperidine]hydrochloride]		SHR mm Hg (decrease in mean arterial blood pressure) (Table III, 50 mg/kg PO): -69 mm Hg
C[C@](N)(Cc1ccc(O)c(O)c1)C(=O)O [α-methyl dopa, reference compound]		SHR value (similar test, 50 mg/kg PO for five days): -40 mm Hg
